Common to all, as to format: cell-based, human
The subject of one assay is ERK in U87-MG cells. As to the kind of experiment: ERK phosphorylation in U87-MG by SK-N-MC-derived conditioned media (CM-SK). The settings on record: HOE-140 5 μM, 15 min pre-treatment. How it is done:
(§1) These conditioned media were either immediately applied to SK-N-SH/SK-N-MC cells (80–100% confluence) in 6-well plates for 15 min, or subjected to heat treatment on a 96 °C heat block for 5 min, and then cooled to 37 °C before they were applied to the SK-N-SH/SK-N-MC cells for 15 min. […] For the SK-N-MC-derived conditioned media, SK-N-MC cells (80–100% confluence) in a 10 cm culture dish were serum-starved in 10 mL of MEM (without FBS), with 1 mL of the resulting conditioned medium being collected at indicated time points (15 min, 1 h, 3 h, 6 h). Simultaneously, U87-MG cells (80–100% confluence) in 12-well plates were serum-starved in MEM for 6 h, followed by pretreatment of […] (5 μM, 15 min), and then challenged with the SK-N-MC-derived conditioned media (mentioned above) for 10 min before cell lysis. […]
(§2) SDS-PAGE and Western blotting were performed as described in our previous studies. […] The amount of protein in each sample was determined by detergent compatible (DC) protein assay according to the supplier’s instruction (Bio-Rad, Hercules, CA, USA). […] Resolved proteins were detected by specific primary antibodies and horseradish peroxidase-conjugated secondary antisera. The level of β-actin was determined as an internal control.

The subject of assay [1] is B2R-mediated LIF secretion in U87-MG cells. As to the kind of experiment: Inhibition of bradykinin-induced LIF production (ELISA), U87-MG. Particulars: 5 μM HOE-140, 30 min pre-treatment, bradykinin 1 µM, 24 h. As for the experimental part:
Conditioned media were analyzed for the presence of multiple cytokines by using the cytokine multiplex assay kits (Merck Millipore, MA, USA) as previously described. Briefly, a bead mixture with various capture antibodies (50 μL) was added to a 96-well microtiter plate, followed by 50 μL of cytokine standard mix or test sample and then 25 μL of a biotinylated detection antibody mixture. The mixtures were incubated for 30 min at 25 °C with gentle shaking. Unbound antibodies were removed by three gentle washes. Finally, 50 μL of streptavidin–PE solution was added and incubated for another 30 min with gentle shaking. The detection beads were then washed again and resuspended in 120 μL of reading buffer. The Bio-Plex™ 200 system (Bio-Rad Laboratories, Hercules, CA, USA) with the Bio-Plex manager software (version 5.0) was utilized for signal detection and data analysis. Curve fitting was applied to each standard curve according to the manufacturer’s manual and sample concentrations were interpolated from the standard curves. Individual detections for LIF and IL-6 were performed using the corresponding ELISA kits from Abcam (Cambridge, UK) according to the manufacturer’s instructions.
(§3) The resulting Ca^2+ signal profiles were monitored by FLIPR for 3 min.
(In general: An ELISA detects its analyte on a solid surface through an enzyme-linked reagent.)

The next assay has as its system p38 MAPK. As to the kind of experiment: Stimulatory phosphorylation of p38 MAPK (Western blot), U87-MG. Particulars: 5 μM HOE-140, 1 µM bradykinin, 10 min. How it is done:
as §3
(§4) SDS-PAGE and Western blotting were performed as described in our previous studies. In brief, cells in 6-well plates (5 × 10^5 cells/well) were lysed in 500 μL of ice-cold lysis buffer (50 mM Tris-HCl at pH 7.5 containing 100 mM NaCl, 5 mM EDTA, 40 mM NaP2O7, 1% Triton X-100, 1 mM dithiothreitol, 200 μM Na3VO4, 100 μM phenylmethylsulfonyl fluoride, 2 μg/mL leupeptin, 4 μg/mL aprotinin, and 0.7 μg/mL pepstatin) and then gently shaken for 30 min. The amount of protein in each sample was determined by detergent compatible (DC) protein assay according to the supplier’s instruction (Bio-Rad, Hercules, CA, USA). Clarified lysates (30 μg protein per sample) were resolved on 12% SDS-polyacrylamide gels and then transferred to nitrocellulose membranes (Westborough, MA, USA). Resolved proteins were detected by specific primary antibodies and horseradish peroxidase-conjugated secondary antisera. The level of β-actin was determined as an internal control. […] Chemiluminescence signals were then detected by ChemiDoc imaging systems (Bio-Rad, Hercules, CA, USA) with the subsequent band densities quantified by ImageJ (https://imagej.net/ij/) analysis software (National Institutes of Health, MD, USA). […]
(§5) Chemiluminescence signals were then detected by the ChemiDoc Imaging Systems (Bio-Rad, […]
Background: A western blot detects proteins with antibodies after separation by electrophoresis.

The subject of another assay is JNK. Briefly: Stimulatory phosphorylation of JNK (Western blot), U87-MG. The settings on record: 5 μM HOE-140, 1 µM bradykinin, 10 min. How it is done: as §3, §4, §5
Another assay has as its system p38 in U87-MG cells. As to the kind of experiment: p38 phosphorylation in U87-MG by SK-N-MC-derived conditioned media (CM-SK). Particulars: HOE-140 5 μM, 15 min pre-treatment. How it is done: as §1, §2
The test system of another assay is ERK. Briefly: Stimulatory phosphorylation of ERK (Western blot), U87-MG. Particulars: 5 μM HOE-140, 1 µM bradykinin, 10 min. As for the experimental part:
as §3, §4, §5

The next assay has as its system JNK in U87-MG cells. As to the kind of experiment: JNK phosphorylation in U87-MG by SK-N-MC-derived conditioned media (CM-SK). Particulars: HOE-140 5 μM, 15 min pre-treatment. As for the experimental part:
as §1, §2

The source of these data is publication PMC11642044 (International Journal of Molecular Sciences, 2024).

HOE-140: the “inhibition of CM-SK-stimulated ERK phosphorylation” value in the assay on ERK in U87-MG cells is reported as “significantly inhibited”. Further, in assay [1], the “inhibition of bradykinin-induced LIF production” value was “blocked the ability of bradykinin to stimulate LIF production”. Also, the “inhibition of bradykinin-induced p38 MAPK activation” value in the assay with p38 MAPK is given as “completely abolished”. The “inhibition of bradykinin-induced JNK activation” value in the assay with JNK is on record as “completely abolished”. In addition, the “inhibition of CM-SK-stimulated p38 phosphorylation” value with p38 in U87-MG cells was “significantly inhibited”. Also, in the assay with ERK, the “inhibition of bradykinin-induced ERK activation” value is recorded as “completely abolished”. The “inhibition of CM-SK-stimulated JNK phosphorylation” value in the assay with JNK in U87-MG cells was “significantly inhibited”.
